# Results: paper PMC11079024, “Identification of a family of species-selective complex I inhibitors as potential anthelmintics” (Nature Communications, 2024)
# “And” between values parts separate entries of the source, which are not always exact repeats. Equal entries are not always repeated. Where two headings read alike, the source gives them in different places.
# Target: M. musculus (heart) complex I (Mus musculus, UniProt P03888+Q91WD5+Q9DC70)
# Assay: biochemical
# Type: biochemical
# Set-up: Complex I activity, dose-response data: unit not given here
# Conditions: for IC50: heart mitochondria; for activity at 0.0001 µM / Complex I activity, dose-response data / activity at 0.0005 µM / activity at 0.001 µM / activity at 0.0025 µM / activity at 0.005 µM / activity at 0.013 µM / activity at 0.025 µM / activity at 0.063 µM / activity at 0.125 µM / activity at 0.313 µM / activity at 0.625 µM / activity at 1.5 µM / activity at 3 µM / activity at 15 µM / activity at 37.5 µM / activity at 75 µM: M. musculus; for activity at 0.0001 µM / activity at 0.0005 µM / activity at 0.001 µM / activity at 0.0025 µM / activity at 0.005 µM / activity at 0.013 µM / activity at 0.025 µM / activity at 0.063 µM / activity at 0.125 µM / activity at 0.313 µM / activity at 0.625 µM / activity at 1.5 µM / activity at 3 µM / activity at 15 µM / activity at 37.5 µM / activity at 75 µM: read-out: Complex I activity, dose-response data
# Experimental: Six 8–10-week-old C57Bl/6 female mice (Charles River) were freshly dissected, and their livers and hearts collected into separate 1.5 mL microcentrifuge tubes. Organs were flash-frozen in liquid nitrogen and stored at −80 °C prior to use. The heart of a freshly slaughtered adult cow was obtained from a local abattoir (Peel Sausage Inc.), chopped into ~1-inch cubes and collected into 50 mL falcon tubes. Falcon tubes were flash-frozen in a container of dry ice and stored at −80 °C prior to use. Isolation of mitochondria from all mammalian tissue was carried out following the protocol described above. However, due to size, the initial homogenization of tissue was performed by 15 strokes in a dounce homogenizer (mouse heart) or with several 5 s pulses in small Nutribullet blender (cow heart). All mouse protocols for mouse care and dissection were reviewed and approved by the University of Toronto Animal Care Committee, in accordance with the Canadian Council on Animal Care.
# The enzymatic activities of individual ETC complexes (I-IV) were assessed spectrophotometrically in isolated mitochondria using a Varioskan LUX Multimode plate reader (ThermoFisher Scientific). Mitochondrial pellets previously isolated were thawed on ice and resuspended in ice-cold isolation buffer (250 mM sucrose, 10 mM Tris (pH 7.5), 1 mM EDTA). The BCA assay (Walker, 1994) was used to quantify the protein concentration of mitochondria suspensions; solutions were diluted to a concentration of 0.2 mg/mL for use in all assays. For the complex I assay, mitochondria pellets were freeze-thawed on ice three times to increase enzyme accessibility. […] 20 μL mitochondria suspension was then added/mixed with a pipette to initiate the reaction. Immediately following the addition of mitochondria, absorbance was measured (complex I and II: 600 nm; complex III and IV: 550 nm) in 30 s intervals over 15 min. Enzymatic activity was determined in each reaction by plotting absorbance versus time and calculating the slope of the curve during the initial linear phase of the reaction. […] Percent activity of each complex was calculated by dividing the enzyme-specific activity of each well by the enzyme-specific activity of the corresponding solvent controls.
# Chemical solutions were prepared in complex I assay buffer composed of 25 mM KPi buffer (pH 7.5), 3 mg/mL bovine serum albumin (BSA), 80 μM NADH, 60 μM decylubiquinone, 160 μM DCIP, 2 μM antimycin A and 2 mM KCN.
# For preliminary screens of hit compounds, compounds were screened at 100 μM; data are the average of at least three biological replicates. The complex I and II activity assays were used for additional dose-response experiments. […] For dose responses of benzimidazole analogs, data represent the average of two biological replicates. For all other dose-responses, data represent the average of at least three biological replicates.
# [1] = dose 0.0001 µM, Mean of replicates
# [2] = dose 0.0001 µM, individual replicates (Rep)
# [3] = dose 0.0005 µM, Mean of replicates
# [4] = dose 0.0005 µM, individual replicates (Rep)
# [5] = dose 0.001 µM, Mean of replicates
# [6] = dose 0.001 µM, individual replicates (Rep)
# [7] = dose 0.0025 µM, Mean of replicates
# [8] = dose 0.0025 µM, individual replicates (Rep)
# [9] = dose 0.005 µM, Mean of replicates
# [10] = dose 0.005 µM, individual replicates (Rep)
# [11] = dose 0.013 µM, Mean of replicates
# [12] = dose 0.013 µM, individual replicates (Rep)
# [13] = dose 0.025 µM, Mean of replicates
# [14] = dose 0.025 µM, individual replicates (Rep)
# [15] = dose 0.063 µM, Mean of replicates
# [16] = dose 0.063 µM, individual replicates (Rep)
# [17] = dose 0.125 µM, Mean of replicates
# [18] = dose 0.125 µM, individual replicates (Rep)
# [19] = dose 0.313 µM, Mean of replicates
# [20] = dose 0.313 µM, individual replicates (Rep)
# [21] = dose 0.625 µM, Mean of replicates
# [22] = dose 0.625 µM, individual replicates (Rep)
# [23] = dose 1.5 µM, Mean of replicates
# [24] = dose 1.5 µM, individual replicates (Rep)
# [25] = dose 3 µM, individual replicates (Rep)
# [26] = dose 15 µM, individual replicates (Rep)
# [27] = dose 37.5 µM, Mean of replicates
# [28] = dose 37.5 µM, individual replicates (Rep)
# [29] = dose 75 µM, individual replicates (Rep)
# Chain of M. musculus (heart) complex I (Q91WD5 34-463): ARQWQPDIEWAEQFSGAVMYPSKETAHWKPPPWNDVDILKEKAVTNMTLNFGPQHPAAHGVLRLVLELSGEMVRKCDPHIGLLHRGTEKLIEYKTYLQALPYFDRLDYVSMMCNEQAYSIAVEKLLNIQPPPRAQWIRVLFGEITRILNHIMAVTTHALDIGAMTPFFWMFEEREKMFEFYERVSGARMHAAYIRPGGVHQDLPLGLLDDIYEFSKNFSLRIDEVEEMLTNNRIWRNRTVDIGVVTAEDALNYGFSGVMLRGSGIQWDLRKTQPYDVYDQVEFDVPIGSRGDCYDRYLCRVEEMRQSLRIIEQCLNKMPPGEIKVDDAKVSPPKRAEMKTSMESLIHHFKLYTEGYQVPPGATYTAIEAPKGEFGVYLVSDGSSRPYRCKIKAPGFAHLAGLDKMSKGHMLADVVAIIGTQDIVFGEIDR
# Chain of M. musculus (heart) complex I (Q9DC70 36-224): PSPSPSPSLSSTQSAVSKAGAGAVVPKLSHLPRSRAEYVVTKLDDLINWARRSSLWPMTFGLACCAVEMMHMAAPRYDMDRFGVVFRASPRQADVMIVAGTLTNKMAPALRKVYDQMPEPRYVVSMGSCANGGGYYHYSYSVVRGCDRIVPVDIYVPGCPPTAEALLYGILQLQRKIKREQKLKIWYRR
# Chain of M. musculus (heart) complex I (P03888 whole entry): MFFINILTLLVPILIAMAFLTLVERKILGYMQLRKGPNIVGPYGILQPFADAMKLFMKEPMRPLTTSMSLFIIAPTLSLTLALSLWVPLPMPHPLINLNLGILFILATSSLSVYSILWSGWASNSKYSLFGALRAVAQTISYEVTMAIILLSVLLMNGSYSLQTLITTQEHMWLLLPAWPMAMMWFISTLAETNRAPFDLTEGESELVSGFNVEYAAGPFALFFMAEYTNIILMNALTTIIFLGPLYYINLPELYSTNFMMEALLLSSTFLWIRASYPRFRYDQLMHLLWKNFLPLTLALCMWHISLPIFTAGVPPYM
structure (smiles),measurement,setting,value
"CC(C)(C)c1ccc(CCOc2ncnc3ccccc23)cc1 [Fenazaquin, reference compound]",IC50,,0.021 µM
COc1cc2c(cc1OC)C(/C=C/c1ccc(N(C)C)cc1)=NCC2 [NPD6303],activity at 0.0001 µM,[1],101%
same,"Complex I activity, dose-response data",[2],95.113 and 105.612 and 100.336
same,activity at 0.0001 µM,[2],101%
same,activity at 0.0005 µM,[3],103%
same,"Complex I activity, dose-response data",[4],98.745 and 107.836 and 100.101
same,activity at 0.0005 µM,[4],104%
same,activity at 0.001 µM,[5],104%
same,"Complex I activity, dose-response data",[6],97.287 and 111.616 and 104.649
same,activity at 0.001 µM,[6],101%
same,activity at 0.0025 µM,[7],105%
same,"Complex I activity, dose-response data",[8],102.935 and 109.008 and 106.731
same,activity at 0.0025 µM,[8],103%
same,activity at 0.005 µM,[9],104%
same,"Complex I activity, dose-response data",[10],104.920 and 109.298 and 99.669
same,activity at 0.005 µM,[10],102%
same,activity at 0.013 µM,[11],106%
same,"Complex I activity, dose-response data",[12],109.789 and 107.516 and 104.172
same,activity at 0.013 µM,[12],104%
same,activity at 0.025 µM,[13],104%
same,"Complex I activity, dose-response data",[14],102.950 and 107.489 and 103.259
same,activity at 0.025 µM,[14],103%
same,activity at 0.063 µM,[15],106%
same,"Complex I activity, dose-response data",[16],109.017 and 105.796 and 103.155
same,activity at 0.063 µM,[16],107%
same,activity at 0.125 µM,[17],104%
same,"Complex I activity, dose-response data",[18],107.003 and 106.214 and 101.940
same,activity at 0.125 µM,[18],102%
same,activity at 0.313 µM,[19],204%
same,"Complex I activity, dose-response data",[20],207.003 and 206.214 and 201.940
same,activity at 0.313 µM,[20],202%
same,activity at 0.625 µM,[21],304%
same,"Complex I activity, dose-response data",[22],307.003 and 306.214 and 301.940
same,activity at 0.625 µM,[22],302%
same,activity at 1.5 µM,[23],404%
same,"Complex I activity, dose-response data",[24],407.003 and 406.214 and 401.940
same,activity at 1.5 µM,[24],402%
same,activity at 3 µM,"dose 3 µM, Mean of replicates",98.6%
same,"Complex I activity, dose-response data",[25],93.765 and 96.975 and 100.381
same,activity at 3 µM,[25],103%
same,activity at 15 µM,"dose 15 µM, Mean of replicates",80.3%
same,"Complex I activity, dose-response data",[26],83.390 and 75.202 and 80.206
same,activity at 15 µM,[26],82.4%
same,activity at 37.5 µM,[27],54.3%
same,"Complex I activity, dose-response data",[28],55.014 and 49.927 and 52.999
same,activity at 37.5 µM,[28],59.2%
same,activity at 75 µM,"dose 75 µM, Mean of replicates",38.9%
same,"Complex I activity, dose-response data",[29],39.690 and 34.902 and 38.927
same,activity at 75 µM,[29],41.9%
same,IC50,,34.9 µM
COc1cc2c(cc1OC)C(C(C)c1ccc(CC(C)C)cc1)=NCC2 (centres unmarked) [NPD10504],activity at 0.0001 µM,[1],100%
same,"Complex I activity, dose-response data",[2],98.111 and 98.124 and 101.101
same,activity at 0.0001 µM,[2],104%
same,activity at 0.0005 µM,[3],102%
same,"Complex I activity, dose-response data",[4],96.317 and 102.767 and 102.719
same,activity at 0.0005 µM,[4],108%
same,activity at 0.001 µM,[5],105%
same,"Complex I activity, dose-response data",[6],99.985 and 104.571 and 105.658
same,activity at 0.001 µM,[6],109%
same,activity at 0.0025 µM,[7],106%
same,"Complex I activity, dose-response data",[8],98.620 and 108.582 and 106.862
same,activity at 0.0025 µM,[8],111%
same,activity at 0.005 µM,[9],106%
same,"Complex I activity, dose-response data",[10],97.614 and 105.909 and 105.173
same,activity at 0.005 µM,[10],114%
same,activity at 0.013 µM,[11],106%
same,"Complex I activity, dose-response data",[12],117.888 and 97.083 and 107.285 and 103.285
same,activity at 0.025 µM,[13],108%
same,"Complex I activity, dose-response data",[14],106.620 and 105.888 and 103.706
same,activity at 0.025 µM,[14],114%
same,activity at 0.063 µM,[15],102%
same,"Complex I activity, dose-response data",[16],96.239 and 106.202 and 93.573
same,activity at 0.063 µM,[16],112%
same,activity at 0.125 µM,[17],100%
same,"Complex I activity, dose-response data",[18],95.373 and 99.771 and 94.821
same,activity at 0.125 µM,[18],110%
same,activity at 0.313 µM,[19],200%
same,"Complex I activity, dose-response data",[20],195.373 and 199.771 and 194.821
same,activity at 0.313 µM,[20],210%
same,activity at 0.625 µM,[21],300%
same,"Complex I activity, dose-response data",[22],295.373 and 299.771 and 294.821
same,activity at 0.625 µM,[22],310%
same,activity at 1.5 µM,[23],400%
same,"Complex I activity, dose-response data",[24],395.373 and 399.771 and 394.821
same,activity at 1.5 µM,[24],410%
same,activity at 3 µM,"dose 3 µM, Mean of replicates",75.9%
same,"Complex I activity, dose-response data",[25],70.628 and 77.319 and 76.050
same,activity at 3 µM,[25],79.7%
same,activity at 15 µM,"dose 15 µM, Mean of replicates",32.6%
same,"Complex I activity, dose-response data",[26],30.650 and 32.968 and 29.935
same,activity at 15 µM,[26],37%
same,activity at 37.5 µM,[27],10.6%
same,"Complex I activity, dose-response data",[28],11.252 and 10.388 and 9.191
same,activity at 37.5 µM,[28],11.7%
same,activity at 75 µM,"dose 75 µM, Mean of replicates",3.69%
same,"Complex I activity, dose-response data",[29],3.180 and 4.662 and 2.397
same,activity at 75 µM,[29],4.5%
same,IC50,,9.52 µM
